In ChEMBL document CHEMBL1201862, “PubChem BioAssay data set” (2004):
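Five compound concentrations were applied to cells in 96-well plates for 48 hours; endpoints were derived by simple linear interpolation of the resulting dose-response curve. At the GI50, growth is halved.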 Calls of active or inactive are those of the source. No stated cut-off is given here; in the data, active = GI50 up to about 1.1 µM and inactive = higher.

Key:
Assay in all cases: growth of human tumour cells (NCI), 48 h
IGROV-1 = tested on: IGROV-1
ACHN = tested on: ACHN
UACC-257 = tested on: UACC-257
CAKI-1 = tested on: CAKI-1
MOLT-4 = tested on: MOLT-4
SK-MEL-5 = tested on: SK-MEL-5
HL-60 = tested on: HL-60
EKVX = tested on: EKVX
SK-OV-3 = tested on: SK-OV-3
SF-539 = tested on: SF-539
HOP-62 = tested on: HOP-62
KM12 = tested on: KM12
Malme-3M = tested on: Malme-3M
UO-31 = tested on: UO-31
786-0 = tested on: 786-0
OVCAR-3 = tested on: OVCAR-3
LOX IMVI = tested on: LOX IMVI

Compound | GI50 (IGROV-1) | GI50 (ACHN) | GI50 (UACC-257) | GI50 (CAKI-1) | GI50 (MOLT-4) | GI50 (SK-MEL-5) | GI50 (HL-60) | GI50 (EKVX) | GI50 (SK-OV-3) | GI50 (SF-539) | GI50 (HOP-62) | GI50 (KM12) | GI50 (Malme-3M) | GI50 (UO-31) | GI50 (786-0) | GI50 (OVCAR-3) | GI50 (LOX IMVI)
CSC(=S)N(C)c1nc(N(C)C)s[s+]1 | > 100 µM (inactive) | > 100 µM (inactive) | > 100 µM (inactive) | > 100 µM (inactive) | > 100 µM (inactive) | > 100 µM (inactive) | 65.2 µM (inactive) | > 100 µM (inactive) | > 100 µM (inactive) | > 100 µM (inactive) | > 100 µM (inactive) | > 100 µM (inactive) | > 100 µM (inactive) | > 100 µM (inactive) | > 100 µM (inactive) | – | –
Cc1ccc(NCC(=O)N2CC(=O)Nc3ccccc32)cc1 | – | > 100 µM (inactive) | > 100 µM (inactive) | > 100 µM (inactive) | > 100 µM (inactive) | > 100 µM (inactive) | > 100 µM (inactive) | > 100 µM (inactive) | > 100 µM (inactive) | > 100 µM (inactive) | > 100 µM (inactive) | > 100 µM (inactive) | > 100 µM (inactive) | > 100 µM (inactive) | > 100 µM (inactive) | > 100 µM (inactive) | > 100 µM (inactive)
Fc1nc(F)nc(-c2c3ccccc3c3n2CCS3)n1 | > 100 µM (inactive) | > 100 µM (inactive) | – | > 100 µM (inactive) | > 10 µM (inactive) | 50.1 µM (inactive) | 46.8 µM (inactive) | > 100 µM (inactive) | > 100 µM (inactive) | > 100 µM (inactive) | 39.7 µM (inactive) | 47 µM (inactive) | > 100 µM (inactive) | 84.5 µM (inactive) | 78.5 µM (inactive) | > 100 µM (inactive) | 61.4 µM (inactive)
Cc1cc(C)nc(NS(=O)(=O)c2ccc(Nc3c4ccc(Cl)cc4nc4c(C(=O)NCCN(C)C)cccc34)cc2)n1 | > 100 µM (inactive) | > 100 µM (inactive) | > 100 µM (inactive) | > 100 µM (inactive) | > 100 µM (inactive) | > 100 µM (inactive) | > 100 µM (inactive) | > 100 µM (inactive) | > 100 µM (inactive) | > 100 µM (inactive) | > 100 µM (inactive) | > 100 µM (inactive) | > 100 µM (inactive) | > 100 µM (inactive) | > 100 µM (inactive) | > 100 µM (inactive) | > 100 µM (inactive)
COC1=CC(=O)C2C(C1=O)C(c1ccc(OC)c(OC)c1)[C@H]2C (some centres undefined) | > 100 µM (inactive) | 18.7 µM (inactive) | 18.6 µM (inactive) | 11.5 µM (inactive) | 7.71 µM (inactive) | 22.4 µM (inactive) | 20.5 µM (inactive) | > 100 µM (inactive) | > 100 µM (inactive) | > 100 µM (inactive) | > 100 µM (inactive) | > 100 µM (inactive) | 19.6 µM (inactive) | > 100 µM (inactive) | 18 µM (inactive) | 19.6 µM (inactive) | 22.9 µM (inactive)
CCCCN(CCCC)C(=O)C(=O)C(C(=O)C(=O)OC)c1nc2ccccc2o1 (centres undefined) | 50.8 µM (inactive) | > 100 µM (inactive) | > 100 µM (inactive) | > 100 µM (inactive) | 29 µM (inactive) | 62.7 µM (inactive) | 69.3 µM (inactive) | – | > 100 µM (inactive) | > 100 µM (inactive) | 74.5 µM (inactive) | > 100 µM (inactive) | > 100 µM (inactive) | > 100 µM (inactive) | > 100 µM (inactive) | 78.5 µM (inactive) | 44.8 µM (inactive)
CC(=O)OCc1cc(OC(C)=O)cnc1COC(C)=O | > 100 µM (inactive) | > 100 µM (inactive) | > 100 µM (inactive) | > 100 µM (inactive) | > 100 µM (inactive) | > 100 µM (inactive) | > 100 µM (inactive) | > 100 µM (inactive) | > 100 µM (inactive) | > 100 µM (inactive) | > 100 µM (inactive) | > 100 µM (inactive) | > 100 µM (inactive) | > 100 µM (inactive) | > 100 µM (inactive) | > 100 µM (inactive) | > 100 µM (inactive)
C1=CC=C2NCCCCCCC/N=C3/C=CC=CC=C3NCCCCCCC/N=C\2C=C1 | 10 µM (inactive) | 85.7 µM (inactive) | > 100 µM (inactive) | > 100 µM (inactive) | 31 µM (inactive) | – | 43.5 µM (inactive) | > 100 µM (inactive) | 10 µM (inactive) | 30.9 µM (inactive) | 10 µM (inactive) | > 100 µM (inactive) | > 100 µM (inactive) | > 100 µM (inactive) | > 100 µM (inactive) | 10 µM (inactive) | 54.2 µM (inactive)
C/N=C(\NC(=S)N(C)C)N(C)C | > 100 µM (inactive) | > 100 µM (inactive) | > 100 µM (inactive) | > 100 µM (inactive) | > 100 µM (inactive) | > 100 µM (inactive) | > 100 µM (inactive) | > 100 µM (inactive) | > 100 µM (inactive) | > 100 µM (inactive) | > 100 µM (inactive) | > 100 µM (inactive) | > 100 µM (inactive) | > 100 µM (inactive) | > 100 µM (inactive) | – | –
Cn1c2ccccc2c(=O)c2c([N+](=O)[O-])ccc(NCCN)c21 | 12.3 µM (inactive) | 6.3 µM (inactive) | 13.6 µM (inactive) | 11.9 µM (inactive) | 2.06 µM (inactive) | 13.2 µM (inactive) | 4.17 µM (inactive) | 16.5 µM (inactive) | 15.7 µM (inactive) | 8.24 µM (inactive) | 14 µM (inactive) | 6.43 µM (inactive) | 14.9 µM (inactive) | 5.64 µM (inactive) | 6.93 µM (inactive) | 13.8 µM (inactive) | –
O=C1c2ccccc2C2(O)Nc3cc(O)ccc3C12O (centres undefined) | > 100 µM (inactive) | > 100 µM (inactive) | – | > 100 µM (inactive) | > 100 µM (inactive) | > 100 µM (inactive) | > 100 µM (inactive) | > 100 µM (inactive) | > 100 µM (inactive) | > 100 µM (inactive) | > 100 µM (inactive) | > 100 µM (inactive) | > 100 µM (inactive) | – | > 100 µM (inactive) | > 100 µM (inactive) | > 100 µM (inactive)
NCCCCCS(=O)(=O)O | > 100 µM (inactive) | > 100 µM (inactive) | > 100 µM (inactive) | – | > 100 µM (inactive) | > 100 µM (inactive) | > 100 µM (inactive) | > 100 µM (inactive) | > 100 µM (inactive) | > 100 µM (inactive) | > 100 µM (inactive) | > 100 µM (inactive) | > 100 µM (inactive) | > 100 µM (inactive) | > 100 µM (inactive) | > 100 µM (inactive) | > 100 µM (inactive)
O=C1/C(=C/c2ccc(C(=O)O)cc2)CNC/C1=C\c1ccc(C(=O)O)cc1 | > 100 µM (inactive) | > 100 µM (inactive) | > 100 µM (inactive) | – | > 100 µM (inactive) | > 100 µM (inactive) | > 100 µM (inactive) | – | > 100 µM (inactive) | > 100 µM (inactive) | > 100 µM (inactive) | > 100 µM (inactive) | > 100 µM (inactive) | > 100 µM (inactive) | > 100 µM (inactive) | > 100 µM (inactive) | –
C=C1CC(OC)(C(OC)C(=O)N(C)[C@H]2OCO[C@H]3C2O[C@H](C[C@@H](COC)OC)C(C)(C)C3OC)O[C@H](C)[C@@H]1C (some centres undefined) | 10.1 µM (inactive) | – | 11.6 µM (inactive) | 5.69 µM (inactive) | 7.18 µM (inactive) | > 9.16 µM (inactive) | 15.9 µM (inactive) | 17 µM (inactive) | – | 14.2 µM (inactive) | > 91.6 µM (inactive) | 5.33 µM (inactive) | – | 15.7 µM (inactive) | – | 10 µM (inactive) | 5.68 µM (inactive)
COc1cc(Cl)cc(O)c(=O)c1OC | – | 37.2 µM (inactive) | 48.8 µM (inactive) | – | 15.8 µM (inactive) | – | 2.15 µM (inactive) | 25.4 µM (inactive) | > 62.5 µM (inactive) | 44.5 µM (inactive) | 41.1 µM (inactive) | 72.8 µM (inactive) | 54.7 µM (inactive) | 42.4 µM (inactive) | 61.1 µM (inactive) | 20.1 µM (inactive) | 26.1 µM (inactive)
Cc1ccc(C2CC(c3ccco3)=NN2c2ccccc2)o1 (centres undefined) | > 100 µM (inactive) | > 100 µM (inactive) | – | – | > 100 µM (inactive) | > 100 µM (inactive) | > 100 µM (inactive) | > 100 µM (inactive) | – | > 100 µM (inactive) | > 100 µM (inactive) | > 100 µM (inactive) | > 100 µM (inactive) | > 100 µM (inactive) | > 100 µM (inactive) | > 100 µM (inactive) | > 100 µM (inactive)
COC(=O)C1CC(c2ccc(Cl)cc2)=NO1 (centres undefined) | > 100 µM (inactive) | > 100 µM (inactive) | > 100 µM (inactive) | 6.17 µM (inactive) | > 100 µM (inactive) | > 100 µM (inactive) | > 100 µM (inactive) | > 100 µM (inactive) | > 100 µM (inactive) | > 100 µM (inactive) | > 100 µM (inactive) | > 100 µM (inactive) | > 100 µM (inactive) | > 100 µM (inactive) | > 100 µM (inactive) | > 100 µM (inactive) | –
CN1CCC(c2c(O)cc(O)c3c(=O)cc(-c4ccccc4Cl)oc23)C(O)C1 (centres undefined) | 0.0735 µM (active) | 0.048 µM (active) | 0.0627 µM (active) | 0.0628 µM (active) | < 0.0108 µM (active) | 0.0344 µM (active) | 0.0197 µM (active) | < 0.0395 µM (active) | 0.571 µM (active) | 0.0929 µM (active) | 0.018 µM (active) | 0.0228 µM (active) | 0.203 µM (active) | 0.0303 µM (active) | 0.0498 µM (active) | – | 0.0173 µM (active)
